Test results taken from ChEMBL document CHEMBL3507680, “University of Dundee, Gates Library screen for HepG2 cell viability”.

Assay: Human HepG2 cell viability assay in 384 well format
Format: toxicity, cell-based
Design: dose 125 nL, time 70.5 hour; cytotoxicity at 70.5 h: concentration not given beside the values
Details: HepG2 cells, read-out: Inhibition

SMILES | cytotoxicity at 70.5 h [%]
Cc1ccc(NC(=O)Cn2ccc3c(=O)n(C)ccc32)cc1F | -5.99
CS(=O)(=O)c1ccc(-c2ccccc2C(=O)O)cc1 | -4.68
CNC(=O)c1cc(C)n(-c2ccccc2)n1 | -2.98
CN(C)C(=O)c1cccnc1SCc1ccccc1Cl | 1.28
CN(C)C(=O)c1cccnc1SCc1ccccc1C#N | -4.31
CSc1ncccc1C(=O)N(CCO)Cc1ccccc1 | -0.362
O=C(NC1CCCCC1)c1cc(Br)cnc1N1CCCCC1 | -4.56
O=C1CC2(CCN(C(=O)c3ccncc3)CC2)Oc2c(Cl)cc(Cl)cc21 | -5.1
O=C1CC2(CCN(C(=O)c3ccccn3)CC2)Oc2c(Br)cc(Br)cc21 | 1.74
Cc1ccc2c(c1)C(=O)CC1(CCN(Cc3ccccc3)CC1)O2 | -2.96
CN(C)C(=O)CN1CCC2(CC1)CC(=O)c1c(ccc3ccccc13)O2 | -1.64
NC(=O)CN1CCC2(CC1)CC(=O)c1ccc3ccccc3c1O2 | -2.33
CCOC(=O)CN1CCC2(CC1)CC(=O)c1ccc3ccccc3c1O2 | -5.23
O=C(NCCc1ccncc1)c1cccnc1OCC(F)(F)F | -1.85
O=C(NCCOCCO)c1cccnc1Oc1ccc(Cl)cc1 | 16.6
O=C(c1cccnc1Oc1ccc(Cl)cc1)N1CC[C@@H](O)C1 | 24.9
COCCNC(=O)c1cccnc1Oc1ccc(Cl)cc1 | -7.58
O=C(NC[C@H]1CCCC[C@H]1O)c1cccc2[nH]c(-c3ccco3)nc12 | 15.3
CC(=O)N1N=C(c2ccccc2)OC1C(=O)N(C)CCc1ccccc1 (stereo not given) | 20
CC(=O)N1N=C(c2ccccc2)OC1C(=O)NCCc1cccc(F)c1 (stereo not given) | 4.79
CC(=O)N1N=C(c2ccco2)OC1C(=O)NCC(C)C (stereo not given) | -4.23
Cc1cc(Cl)ccc1-n1ncc(C(=O)N(C)CCc2ccccn2)c1N | 49.3
CC1(C)OCC(CNC(=O)c2cnn(-c3cccc(Cl)c3Cl)c2N)O1 (stereo not given) | 17

SMILES | cytotoxicity at 70.5 h [%]
CC(C)c1ccc(-n2ncc(C(=O)NCC3COC(C)(C)O3)c2N)cc1 (stereo not given) | 26.2
CN(CCc1ccccn1)C(=O)c1cnn(-c2ccccc2F)c1N | 7.25
Cc1ccc(-n2ncc(C(=O)NC3CC(C)(C)NC(C)(C)C3)c2N)cc1 | 19.8
CCOC(=O)C1CCN(C(=O)c2cnn(-c3ccc(C)cc3)c2N)CC1 | -5.44
Cc1ccc(-n2ncc(C(=O)N(C)C3CCN(C)CC3)c2N)cc1C | 8.36
Cc1nn(-c2cc(Cl)cc(Cl)c2)c(C)c1CCC(=O)O | -5.45
Cc1nn(-c2ccccc2Cl)c(C)c1CCC(=O)O | 4.21
CCOc1ccc(NC(=O)C2OC(c3cccs3)=NN2C(C)=O)cc1 (stereo not given) | 11.5
CC(=O)N1N=C(c2cccs2)OC1C(=O)Nc1ccc(C(C)C)cc1 (stereo not given) | -2.48
CCN(CC)CCNC(=O)CCc1c(C)nn(-c2cccc(Cl)c2)c1C | 0.617
CCOC(=O)CNC(=O)Cn1c(-c2ccoc2)nc(C)c1C | 3.16
CCSc1ncc(CN2CCC(O)(CN3CCOCC3)C(C)(C)C2)cn1 (stereo not given) | 38.5
Cc1nc2ccccc2n1Cc1cc(C(=O)N(C)C2CCOCC2)no1 | 12.4
CC(C)CN1CCCn2nc(CNC(=O)NC(C)(C)C)cc2C1 | -6.75
COCCN(Cc1nccs1)c1nc2c(s1)c(C)nn2C | -10.8
Nc1cc(N2CCCC(COc3ccc(F)cc3)C2)ncn1 (stereo not given) | -12.7
CN(Cc1nccn1C)C1CCCN(CCCc2ccccc2)C1 (stereo not given) | -6.62
c1ccc(C(CC2CN(Cc3ncc[nH]3)CCO2)c2ccccc2)cc1 (stereo not given) | 0.214
Cc1cc(C)n(CCC2CC(=O)Nc3cc(O)c(C)cc32)n1 (stereo not given) | -5.9
CCc1cc(N2CCC3(CCCNC3=O)C2)nc(N2CCOCC2)n1 (stereo not given) | -4.73
Cc1nc[nH]c1CN1CCCC(CNC(=O)c2ccc(N)nc2)C1 (stereo not given) | -6.47
CCNC(=O)N1C[C@@H](NC(C)=O)[C@H](c2ccc(C)o2)C1 | -2.82
Cc1cccc(OCC2CCCN(C(=O)Cn3ccccc3=O)C2)c1 (stereo not given) | 5.85

SMILES | cytotoxicity at 70.5 h [%]
CCCc1cc(C(=O)N2C[C@H](O)[C@@H](N3CCCC3)C2)ccn1 | 16.4
CCSC(C)C(=O)N1CCC(c2nn(C)c(=O)n2-c2ccccc2)CC1 (stereo not given) | -7.97
CCC(Cn1ccnc1)n1cnc2c(C)csc2c1=O (stereo not given) | -14.3
CCn1cnnc1C1CCN(C(=O)c2cccc(OC)c2OC)CC1 | -7.68
CCn1cnnc1C1CCN(C(=O)c2cc(OC)ccc2OC)CC1 | 1
CC(C)c1cc(NC(=O)c2cccnc2)[nH]n1 | -10.3
Cc1cnn(CCNCC(=O)NC(C)c2ccc3c(c2)OCCO3)c1 (stereo not given) | -3.11
Cc1nccn1C1CCCN(C(=O)c2ccc3nncn3c2)C1 (stereo not given) | -4.02
CCn1cnnc1C1CCN(C(=O)c2ccoc2C)CC1 | 11.9
Cc1nc(CN(C)C2CCCN(c3cccnn3)C2)nc2ccccc12 (stereo not given) | 1.21
O=C1NCCN1C1CCN(Cc2nc(-c3ccccc3)no2)CC1 | 13.9
Cc1nc(CN(C)C2CCCN(c3ccccc3)C2)no1 (stereo not given) | -3.56
CCCc1noc(CNc2ccc(C(=O)N3CCCC3)cc2C)n1 | -0.0635
Cc1cc(C)n(CC2CN(CC3CCCC3)CCO2)n1 (stereo not given) | -3.55
Cc1cnn(C2CN(Cc3nc(-c4cccnc4)no3)C2)c1 | 1.92
CC(=O)N(C)c1nc(CN2CCCC2Cn2nc(C)cc2C)cs1 (stereo not given) | -3.11
CC(=O)Nc1nc(CN2CCCCC2Cn2cncn2)cs1 (stereo not given) | 0.302
Cc1cnn(C2CN(Cc3nc(-c4ccccc4C)no3)C2)c1 | 11
COCCOc1ccc(Cl)c(C(=O)N2CCN(CCO)CC2)n1 | -2.95
OCCN1CCN(Cc2coc(-c3cccc(F)c3)n2)CC1 | -7.98
CCn1cc(CN2CCCN(C(=O)CCc3cnn(C)c3)CC2)cn1 | -11.5
O=C(c1ccoc1)N1CCC(Nc2cccnn2)CC1 | -8.84
CC(C)c1nn(C)c(N(C)C)c1CNCC(O)c1ccccc1 (stereo not given) | -10.1

SMILES | cytotoxicity at 70.5 h [%]
Cn1ncc2c(=O)[nH]c(CN(Cc3ccco3)C3CC3)nc21 | -16.2
CN(Cc1nc2c(cnn2C)c(=O)[nH]1)Cc1ccco1 | 7.12
Cc1nc2cc(O)nn2c(C)c1CCC(=O)NCCc1ccccc1 | 10.3
Cc1nc2cc(O)nn2c(C)c1CCC(=O)NCCCC(C)C | -3.79
CC(C)Cc1cc(NC(=O)c2n[nH]c3ccccc23)n(C)n1 | -5.98
Cc1cnn(C2CCCN(C(=O)c3ccc(NC4CC4)nc3)C2)c1 (stereo not given) | -13.3
COC(=O)c1cccn1C1CCN(C(=O)c2ccc(C)cc2O)CC1 | -8.93
CC(C)Cc1cc(NC(=O)c2cc(Cl)c[nH]2)n(C)n1 | -8.43
Cc1nc(NC(=O)CCc2c(C)nc3cc(O)nn3c2C)sc1C | -16.5
Cc1cnn(C2CCCN(C(=O)c3ccc(N4CCCC4)nc3)C2)c1 (stereo not given) | -7.94
CCOc1ccc(Cl)c(C(=O)N2CCN(CC(C)(C)O)CC2)n1 | -12.6
Cc1ccc(F)c(NS(=O)(=O)c2cc(C(=O)O)oc2C)c1 | -10
CN(C(=O)C1CCCC1)C(c1cccc(F)c1)c1ccccn1 (stereo not given) | 14.2
CC(C)c1nc(CN2CCCN(c3nccs3)CC2)no1 | 6.41
CC(=O)N1CCC(Nc2cc(F)ccc2OCC2CCCO2)CC1 (stereo not given) | 11.4
COCCN1CCC(NCc2cc(F)ccc2F)C1 (stereo not given) | 22.5
CCc1noc(CN2CCCN(Cc3cccs3)CC2)n1 | -11.1
Cc1cc(C)c(C(=O)N2CCOCC2c2c(C)nn(C)c2C)o1 (stereo not given) | -12.3
CNC(=O)COc1ccc(CNc2cncc(-n3cccn3)n2)cc1 | -16.8
CCCc1noc(CN2CCN(c3nccs3)CC2)n1 | -6.87
COc1ncccc1NC(=O)N(Cc1ccc(C(N)=O)cc1)C1CC1 | -12.7
COc1ncccc1NC(=O)N(Cc1ccco1)C1CC1 | -14.3
COc1ncccc1NC(=O)N(CC(C)C)C1CC1 | -8.09

SMILES | cytotoxicity at 70.5 h [%]
COC(=O)Nc1ccc(CNc2cncc(-n3cccn3)n2)cc1 | -18.2
CC(C)OCc1ccc(CNc2cncc(-n3cccn3)n2)cc1 | -5.97
CCCOc1ccc(CNc2cncc(-n3cccn3)n2)cc1 | -6.6
CCN(CC)C(=O)c1ccc(CNc2cncc(-n3cccn3)n2)cc1 | -7.26
CN(C)c1cc(CNc2cncc(-n3cccn3)n2)ccn1 | -15.7
O=C(Nc1cc(C(F)(F)F)c[nH]c1=O)N1CCOCC1 | -12.9
COC1CCN(C(=O)Nc2cc(C(F)(F)F)c[nH]c2=O)CC1 | -6.98
O=C(c1ccsc1)N1CCC(Nc2cccnn2)CC1 | -3.37
c1ccc(CN2CCN(c3ccc4nncn4n3)CC2)nc1 | -9.47
c1ccc(CCN2CCN(c3ccc4nncn4n3)CC2)cc1 | -1.86
Cc1ccc(NC2CCN(C(=O)c3ccc(F)c(C)c3)CC2)nn1 | 14.1
COc1ncccc1NC(=O)N(C1CC1)C(C)C(C)C (stereo not given) | -13.6
O=C(O)c1c[nH]c2cc(NS(=O)(=O)c3cccc(F)c3F)ccc12 | -9.73
O=C(O)c1c[nH]c2cc(NS(=O)(=O)c3cc(F)ccc3Cl)ccc12 | -9.41
Cc1ccc(F)cc1S(=O)(=O)Nc1ccc2c(C(=O)O)c[nH]c2c1 | 1.03
O=C(CC(F)(F)F)Nc1cc(F)ccc1OCC1CCCO1 (stereo not given) | -11.3
Cc1ccc(O)c(C(=O)N2CCOCC2c2c(C)nn(C)c2C)c1 (stereo not given) | -2.1
CCCC(=O)N(C)C(c1cccc(F)c1)c1ccccn1 (stereo not given) | -3.08
Cn1cc(CCN2CCOC(CNc3cccnn3)C2)cn1 (stereo not given) | 21.9
COc1ccc(C(=O)N2CCN(CCO)CC2)c(F)c1 | -4.32
CCn1c(C(=O)N2CCN(CC[S+](C)[O-])CC2)cc2ccccc21 (stereo not given) | 0.944
CCN(Cc1ccc2c(c1)OCO2)S(=O)(=O)N(C)C | 0.18
O=C(c1cccn1Cc1cccs1)N1CCN2CCCCC2C1 (stereo not given) | 4.27
